One data set has as its system HCT116 cells. The experiment in a line: Cell viability assay (Alamar Blue, 72 h), HCT116. Type of data set: cell-based, human. The conditions noted are these: for IC50: read-out: Activity data for compounds: HCT116. Background: Alamar Blue is a resazurin reagent that responds to reducing activity.
Data set [1] in a line: Solubility assay (shake-flask method). Type of data set: physicochemical. To be noted: for solubility at 24 h: thermodynamic from solid, water, stirred 24 hours, shake-flask, LCMS, read-out: aq. Solubility; for increased solubility when compared to natural counterpart: 47 vs narciclasine, 52 vs pancratistatin. The procedure:
A calibration was made for each compound by diluting a 1 mM DMSO solution to 10, 25, 50, 75, and 100 μM and then measuring their relative UV absorbance by LC-MS using a Kinetex© Evo C-18 50 mm column running a gradient from 5%→90% MeCN in water over 4 minutes at 0.4 mL/min.
The aqueous solubility of each compound was measured using the shake-flask method. 1.0 mg of compound was diluted to 40 mM with water then stirred for 24 hours. Each solution was then filtered, diluted 10-fold, and analyzed by LCMS. The relative UV absorbance of each compound was then compared to its calibration curve to quantify its aqueous solubility.

The test system of a further data set is A549 cells. To be noted: for IC50: read-out: Activity data for compounds: A549; for anticancer activity / cytotoxicity in words: human lung and colon cancer cell lines (A549 and HCT116).
The nature of data set [2]: Mouse liver microsome assay. To be noted: mouse liver microsomes, 3 h, percentage remaining. In kind it is in vitro ADME. As to the method: A mixture of PBS (pH 7.4), NADPH regenerating system solution A (Corning Life Sciences), and NADPH regenerating system solution B (Corning Life Sciences) was incubated at 37° C. in a shaking incubator for 5 min. Next, compound was added in DMSO (final concentration 50 μM, 0.5% DMSO) before ice-cold mouse liver microsomes (Thermo Fisher, male CD-1 mice, pooled) were added (final protein concentration of 1 mg/mL). An aliquot was immediately removed, quenched with an equal volume of 100 μM internal standard in ice-cold acetonitrile, and centrifuged at 13,000 rcf for 3 min. The supernatant was diluted 1:5 in ddH2O and analyzed by LC-MS. The reactions were incubated at 37° C. in a shaking incubator for 3 h. A second aliquot was removed, quenched and diluted as before and analyzed by LC-MS. The ratio of the areas of analyte:internal standard at 3 hours was compared to the ratio at t0 to determine the percentage of compound remaining. Analysis was performed using a Kinetex® Evo C-18 50 mm column running a gradient from 3%→95% MeCN in water over 9 minutes at 0.4 mL/min. Internal standard=(+)-pancratistatin tetaacetate S4.

Where [3] appears, read: HCT-116, HCT116 human colon cancer cells, 72 h, Alamar Blue.
Where [4] appears, read: A549 human lung cancer cells, 72 h, Alamar Blue.
Setting [5] is: HCT116 human colon cancer cells, 72 h, Alamar Blue.

Values after ≈ are worked out from the molar mass of the structure shown. Read-outs that look alike come from different tables or passages of the source.

With `O=C1N[C@H]2[C@H](O)[C@H](O)[C@@H](O)[C@H](O)[C@@H]2c2cc3c(c(O)c21)OCO3` [compound 2, (+)-pancratistatin, reference compound], the IC50 in the data set on HCT116 cells (Homo sapiens, HCT-116, 72 h) came out at 0.44 µM; with A549 cells, 0.75 µM. Moreover, the solubility at 24 h in data set [1] came to 560 ± 70 µg/mL (≈ 1.72 mM).

As for `N#Cc1c2c(cc3c1C(=O)N[C@@H]1C3=C[C@H](O)[C@@H](O)[C@H]1O)OCO2` [compound 46, 7-cyanolycoricidine], the “activity compared to lycoricidine (3) in HCT116 cells” value in the data set with HCT116 cells is reported as “increased activity when compared to lycoricidine”. The IC50 with HCT116 cells (Homo sapiens, HCT-116, 72 h) is 0.48 µM; in the data set with A549 cells, 1.2 µM.

Consider `C=CCc1c2c(cc3c1C(=O)N[C@@H]1C3=C[C@H](O)[C@@H](O)[C@H]1O)OCO2` [compound 38, 7-allyl lycoricidine], for which the IC50 with HCT116 cells (Homo sapiens, HCT-116, 72 h) was > 100 µM; in the data set with A549 cells, > 100 µM.

With `CCOC(=O)Cc1c2c(cc3c1C(=O)N[C@@H]1C3=C[C@H](O)[C@@H](O)[C@H]1O)OCO2` [compound 44, ethyl 2-(7-lycoricidinyl)acetate], the IC50 turned out to be 80 µM in the data set on HCT116 cells (setting [3]) and 74 µM with A549 cells (setting [4]).

Consider `O=C1N[C@@H]2C(=C[C@H](O)[C@@H](O)[C@H]2O)c2cc3c(c(C(=O)O)c21)OCO3` [compound 43, lycoricidine-7-carboxylic acid], for which the IC50 in the data set on HCT116 cells (Homo sapiens, HCT-116, 72 h) is 80 µM; in the data set with A549 cells (setting [4]) it was > 100 µM.

On to `COc1cccc2c1C(=O)c1c(O)c3c(c(O)c1C2=O)C[C@@](O)(C(=O)CO)C[C@@H]3O[C@H]1C[C@H](N)[C@H](O)[C@H](C)O1` [doxorubicin, reference compound], for which the results for the IC50 in the data set on HCT116 cells (setting [3]) and in the data set on A549 cells (setting [4]) were 0.147 µM and 0.22 µM, respectively.

On to `O=C1N[C@@H]2C(=C[C@H](O)[C@@H](O)[C@H]2O)c2cc3c(cc21)OCO3` [compound 3, (+)-lycoricidine, reference compound], for which the IC50 turned out to be 0.54 µM in the data set on HCT116 cells (setting [3]) and 0.73 µM in the data set on A549 cells (setting [4]).

In the case of `COCc1c2c(cc3c1C(=O)N[C@@H]1C3=C[C@H](O)[C@@H](O)[C@H]1O)OCO2` [compound 40, 7-methoxymethyl lycoricidine], the IC50 in the data set on HCT116 cells (Homo sapiens, HCT-116, 72 h) turned out to be 50 µM; with A549 cells it was 48 µM.

With `CNc1c2c(cc3c1C(=O)N[C@@H]1C3=C[C@H](O)[C@@H](O)[C@H]1O)OCO2` [compound 48, N-methyl-7-aminolycoricidine], the IC50 in the data set with HCT116 cells (setting [3]) turned out to be 12 µM; with A549 cells (setting [4]), 28 µM. Also, in the data set on A549 cells, the “anticancer activity / cytotoxicity in words” value was “did not show significant cytotoxicity”.

Turning to `[2H]C1=C2c3cc4c(c(O)c3C(=O)N[C@@]2([2H])[C@]([2H])(O)[C@]([2H])(O)[C@@]1([2H])O)OCO4` [4-d5, (+)-narciclasine 4-d5], the IC50 turned out to be 0.043 µM in the data set with HCT116 cells (setting [5]) and 0.066 µM in the data set with A549 cells (setting [4]). In addition, the “greater metabolic stability when compared to narciclasine (4)” value in data set [2] is ~30%. Also, the “anticancer activity / cytotoxicity in words” value in the data set on A549 cells was “equipotent activity”.

For `O=C1N[C@@H]2C(=C[C@H](O)[C@@H](O)[C@H]2O)c2cc3c(c(N4CCOCC4)c21)OCO3` [compound 51, 7-(4-morpholinyl)lycoricidine], the IC50 with HCT116 cells (setting [3]) was 33 µM; in the data set on A549 cells (setting [4]), 39 µM. In the data set on A549 cells, the “anticancer activity / cytotoxicity in words” value is “did not show significant cytotoxicity”.

Turning to `CC(=O)Nc1c2c(cc3c1C(=O)N[C@@H]1C3=C[C@H](O)[C@@H](O)[C@H]1O)OCO2` [compound 49, 7-acetamidelycoricidine], the IC50 in the data set with HCT116 cells (setting [3]) and with A549 cells (setting [4]) was > 100 µM in each case. In the data set with A549 cells, the “anticancer activity / cytotoxicity in words” value is recorded as “did not show significant cytotoxicity”.

Take `O=C1N[C@@H]2C(=C[C@H](O)[C@@H](O)[C@H]2O)c2cc3c(c(C(=O)c4ccccc4)c21)OCO3` [compound 39, 7-oxophenyl lycoricidine]: the IC50 in the data set on HCT116 cells (Homo sapiens, HCT-116, 72 h) was 35 µM; in the data set with A549 cells, 44 µM.

Turning to `O=C1N[C@@H]2C(=C[C@H](O)[C@@H](O)[C@H]2O)c2cc3c(c(N4CCCC4)c21)OCO3` [compound 50], the IC50 with HCT116 cells (setting [3]) and in the data set with A549 cells (setting [4]) was > 100 µM each time. In the data set with A549 cells, the “anticancer activity / cytotoxicity in words” value is “did not show significant cytotoxicity”.

Regarding `O=C1N[C@@H]2C(=C[C@H](O)[C@@H](O)[C@H]2O)c2cc3c(c(O)c21)OCO3` [compound 4, (+)-narciclasine, reference compound], the IC50 in the data set with HCT116 cells (setting [5]) is 0.0324 µM; in the data set on A549 cells (setting [4]), 0.056 µM.

Turning to `COC(=O)c1c2c(cc3c1C(=O)N[C@@H]1C3=C[C@H](O)[C@@H](O)[C@H]1O)OCO2` [compound 42, 7-carboxymethyl lycoricidine], the IC50 in the data set with HCT116 cells (Homo sapiens, HCT-116, 72 h) came out at 29 µM; with A549 cells, 39 µM.

With `Nc1c2c(cc3c1C(=O)N[C@@H]1C3=C[C@H](O)[C@@H](O)[C@H]1O)OCO2` [compound 47, 7-aminolycoricidine], the IC50 in the data set with HCT116 cells (Homo sapiens, HCT-116, 72 h) came to 0.39 µM. For the same molecule, in data set [1], the “increased solubility when compared to natural counterpart” value came out at 11 fold and the solubility at 24 h worked out at 3740 ± 200 µg/mL (≈ 12.2 mM). The IC50 in the data set on A549 cells was determined as 0.38 µM.

`O=C(O)Cc1c2c(cc3c1C(=O)N[C@@H]1C3=C[C@H](O)[C@@H](O)[C@H]1O)OCO2` [compound 45, 2-(7-lycoricidinyl)acetic acid]: the IC50 was 70 µM with HCT116 cells (Homo sapiens, HCT-116, 72 h) and 89 µM with A549 cells.

As to `[2H]C1([2H])Oc2cc3c(c(O)c2O1)C(=O)N[C@@H]1C3=C[C@H](O)[C@@H](O)[C@H]1O` [4-d2, (+)-narciclasine 4-d2], the IC50 turned out to be 0.04 µM in the data set with HCT116 cells (setting [5]) and 0.07 µM with A549 cells (setting [4]). In data set [2], the “greater metabolic stability when compared to narciclasine (4)” value is on record as ~30%. The “anticancer activity / cytotoxicity in words” value in the data set on A549 cells was “equipotent activity”.

With `O=C1N[C@@H]2C(=C[C@H](O)[C@@H](O)[C@H]2O)c2cc3c(c(CO)c21)OCO3` [compound 41, 7-hydroxymethyl lycoricidine], the IC50 with HCT116 cells (Homo sapiens, HCT-116, 72 h) was > 100 µM; with A549 cells it was > 100 µM. In addition, in the data set on A549 cells, the “anticancer activity / cytotoxicity in words” value is recorded as “less potent”.

`Nc1c2c(cc3c1C(=O)N[C@H]1[C@H](O)[C@H](O)[C@@H](O)[C@H](O)[C@H]31)OCO2` [compound 52, 7-aminopancratistatin]: the IC50 in the data set on HCT116 cells (Homo sapiens, HCT-116, 72 h) was found to be 3.4 µM. In data set [1], the “increased solubility when compared to natural counterpart” value stood at 6 fold and the solubility at 24 h was 3460 ± 140 µg/mL (≈ 10.7 mM). In addition, the IC50 in the data set on A549 cells was determined as 9 µM.

`O=C1N[C@H]2[C@H](O)[C@H](O)[C@@H](O)[C@H](O)[C@@H]2c2cc3c(cc21)OCO3` [compound 1, (+)-7-deoxypancratistatin, reference compound]: the IC50 is 1.5 µM in the data set on HCT116 cells (Homo sapiens, HCT-116, 72 h) and 2.9 µM in the data set with A549 cells.

The term solubility denotes how much of the substance goes into solution per volume.

These data come from patent publication US12084456B2, “Isocarbostyril alkaloids and functionalization thereof” (The Board of Trustees of the University of Illinois, priority 2018, dated 2024).
